Measurements reported in patent publication US20040192673A1, “N-aroyl cyclic amine derivatives as orexin receptor antagonists” (priority 2001, published 2004).

What was measured:
freely-feeding rats = settings: central administration, 4 hour time period; cited from earlier work
rat = assay: Rat sleep/EEG studies; type: in vivo; settings: central administration at the onset of the normal sleep period
Source text: Therefore antagonists of its receptor may be useful in the treatment of sleep disorders including insomnia.

orexin-A: ligand for the orexin-1 receptor, an agonist of the orexin receptors; 33-residue peptide, sequence in b167 (QPLPDCCRQKTCSCRLYELLHGAGNHAAGILTL; not fully specified; Orexin-A; UniProt O43612 34-66, looked up)
increase in food intake over control rats receiving vehicle (freely-feeding rats): approximately four-fold
arousal (sleep/EEG) (rat): dose-related increase in arousal
